Reference: US20240325565A1, “COMBINATION TREATMENT FOR SOLID TUMORS INCLUDING A STING AGONIST AND A CCR2 ANTAGONIST” (University of Pittsburgh - Of the Commonwealth System of …, priority 2023, published 2024)

Assays:
[1] = cited from earlier work
Panc02 cells [2] = assay: MTT cytotoxicity assay; format: cell-based, Murine; details: 96 h
Protocol: MTT assay. Panc02 cells were seeded in 96-well plates at a density of 1500 cells/well with 100 μL of complete culture medium (DMEM with 10% FBS and 1% streptomycin/penicillin). After overnight incubation, Panc02 cells were treated with various concentrations of saline, free PF, free BMS, free Bind, free GEM, free GEM+PF, PGEM, PGEM/PF, PGEM/BMS, and PGEM/Bind micelles. After 96 h, the cytotoxicity was determined by MTT assay. The absorbance of each well was measured at 590 nm and the cell viability was determined via the following formula: (ODtreated−ODblank)/(ODcontrol−ODblank)×100%.

[3] = Release of PF from PGEM/PF micelles (dialysis method); format: physicochemical; details: 37° C., PBS with 0.5% tween 80, 24 h
Protocol: Release of PF from PGEM/PF micelles. The release of PF from PGEM/PF micelles was examined at 37° C. via a dialysis method with free PF as a control. PF-loaded PGEM micelles was transferred into a dialysis bag with MWCO of 3500 Da, which was then incubated in 50 mL PBS with 0.5% (w/v) tween 80 under gentle shaking. At specific time intervals, all the PBS solution outside the dialysis bag was withdrawn and replaced with another 50 mL of fresh solution. The PF concentrations in the solution were determined by HPLC.

Panc02 tumors [4] = assay: In vivo anti-tumor study in Panc02 tumor-bearing mice; details: i.v. three times at an interval of three days; for anti-tumor activity of PGEM loaded with CCR2 inhibitor: 10 mg/kg for CCR2 inhibitor; for inhibition of Panc02 tumor growth (therapeutic efficacy): GEM: 20 mg/kg, PF: 10 mg/kg
Protocol: In vivo anti-tumor study. The antitumor effect was evaluated in syngeneic mice bearing Panc02 tumors. In brief, 1×10^5 Panc02 cells were inoculated into the right flank of female C57BL/6 mice. When the tumor volume reached ˜50 mm^3, the mice started to receive different treatments. […]. In a separate study, the synergistic tumor inhibition effect of PF and GEM was evaluated by intravenously injecting saline, free GEM, free PF, free GEM+PF, PGEM, and PGEM/PF (GEM: 20 mg/kg; PF: 10 mg/kg), respectively, into the Panc02 tumor-bearing mice. These treatments were also performed three times at an interval of three days. The tumor volumes and body weights were continuously monitored. At the endpoint, the tumor tissues and major organs were fixed in 10% formalin and dehydrated. Then they were embedded in paraffin and sectioned, followed by H&E staining with for histopathological examination. The biochemical parameters, including WBCs, RBCs, Hb, AST, ALT, and creatinine, were evaluated for safety profiles. The effect of PGEM/PF on the inhibition of lung metastasis of pancreatic cancer was also evaluated. A pulmonary metastasis model of pancreatic cancer was established by injecting KPC cells via tail vein. On day 10 following tumor cell inoculation, mice were i.v. administered with saline, free GEM+PF, PGEM, and PGEM/PF, respectively. The treatment was performed at day 10, day 14, and Day 18, and the mice were sacrificed at day 20.

Panc02 tumors [5] = assay: Quantification of tumor-infiltrating immune cells by flow cytometry; format: in vivo, mice; details: i.v. every three days for three times
Protocol: Quantification of tumor-infiltrating lymphocytes by flow cytometry. Syngeneic C57BL/6 mice bearing Panc02 tumors received various treatments (saline, free GEM, free PF, free GEM+PF, PGEM, and PGEM/PF) via i.v. administration every three days for three times. Tumors were collected at 24 h following the last treatment. Single cell suspensions were prepared according to previous literature. See Wan, Z., et al., Science Advances, 7 (50), eabj4226 (2021). Then the cells were stained with various antibodies (Table 1) for flow cytometry analysis. For intracellular cytokine (IFN-γ and GZB) staining, cells were stimulated with PMA (100 ng/mL) and lonomycin (500 ng/mL) for 5 h in the presence of Monensin. Cells were fixed/permeabilized using the BD Cytofix/Cytoperm kit prior to cell staining. Then, the fixed/permeabilized cells were suspended in residual Intracellular Staining Perm Wash Buffer and a predetermined optimum concentration of fluorophore-conjugated antibody of interest was added (e.g. PE anti-IFN-γ) for 30 minutes. The data were analyzed using FlowJo software (available from Becton Dickenson & Company pf Ashland, OR). The percentage of cytokine (IFN-γ or GZB)-producing NK and CD8^+ T cells was gated under total NK and CD8^+ T cells, respectively, which represents the percentage of total NK or CD8^+ T that are IFN-γ or GZB positive.

Panc02 cells [6] = assay: γH2AX foci immunofluorescence (DNA double strand break marker); format: cell-based, Murine
Protocol: (§1) Immunofluorescence Microscopy. Panc02 cells were seeded on chamber slides and treated with saline, free GEM, PGEM micelles, and PVD micelles, respectively. For all immunofluorescence staining, cells were washed in PBS, fixed in 4% formaldehyde/PBS for ten minutes at room temperature (RT) and permeabilized in 0.25% Triton/PBS for 20 minutes at RT. Blocking was performed in 5% BSA/0.1% Triton/PBS for 30 minutes, followed by incubation with primary antibodies in blocking buffer for one hour at 37° C. incubator. Cells were washed in PBS and incubated with secondary antibodies in blocking buffer for one hour at RT, followed by washing and mounting on coverslips using ProLong Gold antifade reagent with DAPI. Cells were imaged using confocal microscope at the specified magnification. For picogreen-cGAS staining, cells were incubated with pico488 DNA quantification reagent for 2 hours at 37° C. For γH2AX staining, permeabilized cells were blocked in Serum-free DAKO Protein Block for one hour at RT. Cells were incubated in primary antibody (γH2AX, 1:500; anti-HA, 1:100) in DAKO antibody (available from Agilent of Santa Clara, CA) diluent at 4° C. overnight on a rocker platform.

Panc02 cells [7] = assay: qRT-PCR in cultured Panc02 cells; format: cell-based, Murine
Protocol: qRT-PCR. Panc02 cells grown in six-well plates were treated with saline, free GEM, PGEM micelles, and PVD micelles, respectively, for 48 h. Then, RNA was isolated using the PureLinkTM RNA kit (InvitrogenTM available from Thermo Fisher Scientific) and reverse transcribed using the High-Capacity cDNA Reverse Tran--scription Kit (available from Applied Biosystems/Thermo Fisher Scientific) based on the manufacturer's guidelines. qPCR was performed using Power SYBR Green PCR MasterMix (Applied Biosystems) in a QuantStudio 3 Real-Time PCR System (Applied Biosystems). In a separate study, Panc02 cells grown in six-well plates were treated with PGEM for 72 h. One day after adding PGEM into the wells, control siRNA (siNC) or STING siRNA ([…]) was added into the wells without changing the medium, and incubated for 48 h. Then the RNA was extracted, and CCL2, CCL7 and ISG15 expression levels were detected as described above. In another study, whether CCL2, CCL7 and ISG15 were induced by type I IFNs was evaluated. Panc02 cells grown in six-well plates were treated with PGEM for 72 h. One day after adding PGEM into the wells, isotype control (10 μg/mL) or IFNAR1 antibody (10 μg/mL) was added into the wells without changing the medium, and incubated for 48 h. Then, the RNA was extracted subjected to qRT-PCR analysis of the mRNA expression levels of CCL2, CCL7 and ISG15.

cGAS in Panc02 cells = assay: Picogreen staining and immunofluorescence for cGAS-bound micronuclei; format: cell-based, Murine; details: compared with control and PVD-treated groups
Protocol: as §1

[8] = system: STING pathway in Panc02 cells; assay: Western blotting of STING pathway-related proteins; format: cell-based, Murine
Protocol: Western blotting. Western blotting was performed to evaluate the STING activation in cultured Panc02 cells. Cells grown in six-well plates with 80% confluency were treated with saline, free GEM, PGEM micelles, and PVD micelles, respectively, for 48 h. Then, the cultured Panc02 cells were washed twice with pre-cooled PBS and lysed in Pierce™ RIPA buffer (available from Thermo Fischer Scientific of Pittsburgh, PA) for 30 min in 4° C. Protein concentrations were determined by BCA method, and equal amounts of total protein lysate were resolved on a 10% SDS-PAGE and subsequently transferred to a nitrocellulose membrane. Membranes were blocked with 5% non-fat milk in PBS for 1 h prior to incubation with various antibodies targeting IRF3, P-IRF3, STING, P-STING, and Cyclin B dissolved in PBST (DPBS with 0.1% Tween 20) overnight at 4° C. The blots were washed with PBST and then probed with goat antirabbit IgG for 1 h at room temperature followed by chemiluminescence detection by SuperSignal™ West Fento Maximum Sensitivity Substrate (available from Thermo Fischer Scientific). Q-Actin or GAPDH was used as a loading control.

Panc02 tumor tissues = assay: Bulk RNA-Seq of Panc02 tumor tissues; format: in vivo, mice
Protocol: Bulk RNA-Seq Analysis. The Panc02 tumor-bearing mice were intravenously injected with saline, GEM and PGEM once every three days for 3 times, respectively. One day after last injection, the tumors were harvested for RNA sequencing (RNA-seq), which was performed by the Health Sciences Sequencing Core at Children's Hospital at University of Pittsburgh. RNA-Seq libraries were sequenced as 75-bp paired-end reads at a depth of ˜73-77 million reads per sample. Reads were mapped to the mouse genome (GRCm38) using STAR Aligner 2.6.1a. Gene expression quantification and differential expression analysis was performed on Saline, GEM, and PGEM treated tumor samples using RSEM 1.3.1 and Cuffdiff of Cufflinks 2.2.1. Volcano plots were generated to show the overall differential expression between pairwise comparisons among these three groups, where the x-axis indicates the log-transformed fold changes (log 2FC) and the y-axis indicates the corresponding negative log-transformed p-values (−log10(p-value)). The Gene Set Enrichment Analysis (GSEA), via GSEA software available from Broad Institute, Inc. of Cambridge, MA, was further performed based on the gene lists ranked by the log 2FC among three groups.

[9] = Cuffdiff P<0.05, i.v. once every three days for 3 times

Q: For `CC(=O)N[C@@H]1C[C@H](NC(C)(C)C)CC[C@@H]1N1CC[C@H](Nc2ncnc3cc(C(C)(C)C)nn23)C1=O` [BMS813160, N-[(1R,2S,5R)-5-[(1,1-dimethylethyl)amino]-2-[(3S)-3-[[7-(1,1-dimethylethyl)pyrazolo[1,5-a]-1,3,5-triazin-4-yl]amino]-2-oxo-1-pyrrolidinyl]cyclohexyl]-acetamide], which bioavailability [1] is on record?
A: low bioavailability

Q: And the solubility [1]?
A: poor solubility

Q: Which results are given for `O=C(NCC(=O)N1CC[C@H](N[C@H]2CC[C@@](O)(c3ccc(-c4ncccn4)cn3)CC2)C1)c1cccc(C(F)(F)F)c1` [PF-04136309, N-(2-((S)-3-(((1r,4S)-4-hydroxy-4-(5-(pyrimidin-2-yl)pyridin-2-yl)cyclohexyl)amino)pyrrolidin-1-yl)-2-oxoethyl)-3-(trifluoromethyl)benzamide]?
A: cytotoxicity (Panc02 cells [2]): slight cytotoxicity; PF diffused out of dialysis bag within 24 h [3]: over 95%; anti-tumor activity of PGEM loaded with CCR2 inhibitor (Panc02 tumors [4]): best combination effect; anti-tumor activity of PGEM loaded with CCR2 inhibitor (Panc02 tumors [4]; listed as PF): best results; inhibition of Panc02 tumor growth (therapeutic efficacy) (Panc02 tumors [4]): modest effect; bioavailability [1]: low bioavailability; solubility [1]: poor solubility; percentage of MDSCs and TAMs in tumors (Panc02 tumors [5]): decrease

Q: What does the source list for `Nc1ccn([C@@H]2O[C@H](CO)[C@@H](O)C2(F)F)c(=O)n1` [GEM, Gemcitabine]?
A: formation of γH2AX foci (Panc02 cells [6]): induced; CCL2, CCL7 and ISG15 expression (Panc02 cells [7]): similarly induced; signals of cGAS-bound micronuclei (cGAS in Panc02 cells): significantly increased; IRF3 and STING phosphorylation ([8]; 48 h): significantly induced; normalized protein levels of pIRF3 and pSTING ([8]; compared with saline and PVD polymer-treated groups): significantly higher; inhibition of Panc02 tumor growth (therapeutic efficacy) (Panc02 tumors [4]): modest effect; genes significantly downregulated (Panc02 tumor tissues; [9]): 489 genes; genes significantly upregulated (Panc02 tumor tissues; [9]): 416 genes; CCL2 and CCL7 gene expression (RNAseq) (Panc02 tumor tissues; mouse, in vivo): upregulation; ISG15 expression (RNAseq) (Panc02 tumor tissues; mouse, in vivo): upregulated
